Where “and” joins values, the source holds several entries; their conditions need not be identical. Identical values can stand only once. Like-named read-outs stand apart in the source and are kept apart here.
Tests used:
Format in all cases: in vivo
[1] = system: Velvetleaf (Abutilon theophrasti MEDIC.); assay: Test Example 13: field plot test, growth inhibition; conditions: 648 h, Example 8 suspension concentrate, 27 days after treatment, field plots; for inhibition at 30 g/ha: Compound A 30 g/ha; for inhibition at 40 g/ha: Compound A 40 g/ha
Source text: (§1) In field plots of 4 m² (1 m × 4 m) unit arranged in a duplicate system, seeds of corn, crabgrass (Digitaria sanguinalis L.) common lambsquarters (Chenopodium album L.), slender amaranth (Amaranthus viridis L.), velvetleaf (Abutilon theophrasti MEDIC.) and common cocklebur (Xanthium strumarium L.) were sown and grown. Also, green foxtail (Setaria viridis L.) and barnyardgrass (Echinochloa crus-galli L.) were allowed to grow spontaneously. When the plants grew to certain stages (corn: 4.2 to 6.0-leaf stage, crabgrass: 3.2 to 5.0-leaf stage, common lambsquarters: 3.0 to 6.0-leaf stage, slender amaranth: 2.0 to 5.0-leaf stage, velvetleaf: 1.5 to 4.0-leaf stage, common cocklebur: cotyledonal to 3.5-leaf stage, green foxtail: 3.0 to 5.0-leaf stage and barnyardgrass: 3.0 to 5.0-leaf stage), the oil-based suspension concentrate obtained in Example 8 was diluted with 200 liters/hectare of water containing a predetermined amount of Frigate and was applied foliarly to the plants with a small spray gun.
(§2) Twenty seven days after treatment, the growth inhibition of plants except for corn plants was evaluated with visual observation in the same manner as in Test Example 1 and are shown in Table 13.

[2] = system: Common lambsquarters (Chenopodium album L.); assay: as above; conditions: 648 h, Example 8 suspension concentrate, 27 days after treatment, field plots, read-out: Growth Inhibition (%) CA; for inhibition at 30 g/ha: Compound A 30 g/ha; for inhibition at 40 g/ha: Compound A 40 g/ha
Source text: as §1, §2

[3] = system: common cocklebur (Xanthium strumarium L.); assay: as above; conditions: Example 8 suspension concentrate, 27 days after treatment, field plots
Source text: as §1, §2

[4] = system: barnyardgrass (Echinochloa crus-galli L.); assay: as above; conditions: Example 8 suspension concentrate, 27 days after treatment, field plots; for inhibition at 30 g/ha: Compound A 30 g/ha
Source text: as §1, §2

[5] = system: green foxtail (Setaria viridis L.); assay: as above; conditions: Example 8 suspension concentrate, 27 days after treatment, field plots; for inhibition at 40 g/ha: Compound A 40 g/ha
Source text: as §1, §2

[6] = system: Crabgrass (Digitaria sanguinalis L.); assay: as above; conditions: 648 h, Example 8 suspension concentrate, 27 days after treatment, field plots, read-out: Growth Inhibition (%) DS; for inhibition at 30 g/ha: Compound A 30 g/ha; for inhibition at 40 g/ha: Compound A 40 g/ha
Source text: as §1, §2

[7] = system: slender amaranth (Amaranthus viridis L.); assay: as above; conditions: 648 h, Example 8 suspension concentrate, 27 days after treatment, field plots, read-out: Growth Inhibition (%) AV; for inhibition at 30 g/ha: Compound A 30 g/ha; for inhibition at 40 g/ha: Compound A 40 g/ha
Source text: as §1, §2

total evaluation = assay: Test Example 12: field plot test, total evaluation of growth inhibition; conditions: 648 h, Example 8 suspension concentrate, 27 days after treatment, field plots, read-out: Growth Inhibition (%) TE; for inhibition at 40 g/ha: Compound A 40 g/ha; for inhibition at 60 g/ha: Compound A 60 g/ha
Source text: In field plots of 3 m² (1 m × 3 m) unit arranged in a duplicate system, seeds of corn, crabgrass (Digitaria sanguinalis L.), green foxtail (Setaria viridis L.), common lambsquarters (Chenopodium album L.), slender amaranth (Amaranthus virdis L.) and velvetleaf (Abutilon theophrasti MEDIC.) were sown and grown. Also, barnyardgrass (Echinochloa crus-galli L.), henbit (Lamiun amplexlcaule L.), pale smartweed (Polygonum lapathifolium L.) and threeseeded copperleaf (Acalypha australis L.) were allowed to grow spontaneously. When the plants grew to certain stages (corn: 6.1 to 6.5-leaf stage, crabgrass: 2.0 to 4.5-leaf stage, green foxtail: 3.0 to 4.5-leaf stage, common lambsquarters: 4.0 to 8.0-leaf stage, slender amaranth: 1.0 to 4.0-leaf stage, velvetleaf: 2.0 to 3.5-leaf stage, barnyardgrass: 3.0 to 4.5-leaf stage, henbit: 2.0 to 5.0 cm, pale smartweed: 3.0 to 5.0-leaf stage and threeseeded copperleaf: 2.0 to 4.0-leaf stage), the oil-based suspension concentrate obtained in Example 8 was diluted with 200 liters/hectare of water containing a predetermined amount of Frigate and was applied foliarly to the plants with a small spray gun.
Twenty seven days after treatment, the growth inhibition of plants except for corn plants was evaluated with visual observation in the same manner as in Test Example 1 and are shown in Table 12.

[8] = Frigate 0.2 % by volume, Compound A 20 g/ha
[9] = Frigate: No addition, Compound A 50 g/ha

COc1cc(OC)nc(NC(=O)NS(=O)(=O)c2ncccc2C(=O)N(C)C)n1 [Compound A, N-[(4,6-dimethoxypyrimidin-2-yl)aminocarbonyl]-3-dimethylaminocarbonyl-2-pyridinesulfonamide]
inhibition at 30 g/ha ([1]; Frigate 0.1 % by volume): 70% | inhibition at 40 g/ha ([1]; Frigate 0.1 % by volume): 70% | inhibition at 20 g/ha [1, 8]: 55% | inhibition at 30 g/ha ([1]; Frigate 0.2 % by volume): 70% | inhibition at 40 g/ha ([1]; Frigate 0.2 % by volume): 75% | inhibition at 30 g/ha ([1]; Frigate: No addition): 30% | inhibition at 40 g/ha ([1]; Frigate: No addition): 55% | inhibition at 50 g/ha [1, 9]: 70% | inhibition at 30 g/ha ([2]; Frigate 0.1 % by volume): 80% | inhibition at 40 g/ha ([2]; Frigate 0.1 % by volume): 90% | inhibition at 30 g/ha ([2]; Frigate 0.2 % by volume): 85% | inhibition at 40 g/ha ([2]; Frigate 0.2 % by volume): 90% | inhibition at 30 g/ha ([2]; Frigate: No addition): 45% | inhibition at 40 g/ha ([2]; Frigate: No addition): 65% | inhibition at 50 g/ha [2, 9]: 65% | Growth Inhibition (%) XS ([3]; Frigate 0.2 % by volume, Compound A 40 g/ha): 65% | Growth Inhibition (%) XS ([3]; Frigate: No addition, Compound A 30 g/ha): 25% and 50% | inhibition at 30 g/ha ([3]; Xanthium strumarium, 648 h, Frigate 0.1 % by volume, Compound A 30 g/ha, read-out: Growth Inhibition (%) XS): 80% | inhibition at 40 g/ha ([3]; Xanthium strumarium, 648 h, Frigate 0.1 % by volume, Compound A 40 g/ha, read-out: Growth Inhibition (%) XS): 80% | inhibition at 20 g/ha ([3]; Xanthium strumarium, 648 h, Frigate 0.2 % by volume, Compound A 20 g/ha, read-out: Growth Inhibition (%) XS): 80% | inhibition at 30 g/ha ([3]; Xanthium strumarium, 648 h, Frigate 0.2 % by volume, Compound A 30 g/ha, read-out: Growth Inhibition (%) XS): 85% | inhibition at 40 g/ha ([3]; Xanthium strumarium, 648 h, Frigate: No addition, Compound A 40 g/ha, read-out: Growth Inhibition (%) XS): 75% | inhibition at 50 g/ha ([3]; Xanthium strumarium, 648 h, Frigate: No addition, Compound A 50 g/ha, read-out: Growth Inhibition (%) XS): 70% | inhibition at 40 g/ha ([4]; Echinochloa crus-galli, 648 h, Frigate 0.1 % by volume, Compound A 40 g/ha, read-out: Growth Inhibition (%) EC): 100% | inhibition at 20 g/ha ([4]; Echinochloa crus-galli, 648 h, Frigate 0.2 % by volume, Compound A 20 g/ha, read-out: Growth Inhibition (%) EC): 100% | inhibition at 30 g/ha ([4]; Echinochloa crus-galli, 648 h, Frigate 0.2 % by volume, read-out: Growth Inhibition (%) EC): 100% | inhibition at 40 g/ha ([4]; Echinochloa crus-galli, 648 h, Frigate 0.2 % by volume, Compound A 40 g/ha, read-out: Growth Inhibition (%) EC): 100% | inhibition at 30 g/ha ([4]; Echinochloa crus-galli, 648 h, Frigate: No addition, read-out: Growth Inhibition (%) EC): 65% | inhibition at 40 g/ha ([4]; Echinochloa crus-galli, 648 h, Frigate: No addition, Compound A 40 g/ha, read-out: Growth Inhibition (%) EC): 75% | Growth Inhibition (%) EC ([4]; Frigate: No addition, Compound A 40 g/ha): 60% | Growth Inhibition (%) SV ([5]; Frigate 0.1 % by volume, Compound A 30 g/ha): 40% | inhibition at 40 g/ha ([5]; Setaria viridis, 648 h, Frigate 0.1 % by volume, read-out: Growth Inhibition (%) SV): 70% | inhibition at 20 g/ha ([5]; Setaria viridis, 648 h, Frigate 0.2 % by volume, Compound A 20 g/ha, read-out: Growth Inhibition (%) SV): 60% | inhibition at 30 g/ha ([5]; Setaria viridis, 648 h, Frigate 0.2 % by volume, Compound A 30 g/ha, read-out: Growth Inhibition (%) SV): 65% | inhibition at 40 g/ha ([5]; Setaria viridis, 648 h, Frigate 0.2 % by volume, read-out: Growth Inhibition (%) SV): 75% | inhibition at 30 g/ha ([5]; Setaria viridis, 648 h, Frigate: No addition, Compound A 30 g/ha, read-out: Growth Inhibition (%) SV): 65% | inhibition at 40 g/ha ([5]; Setaria viridis, 648 h, Frigate: No addition, read-out: Growth Inhibition (%) SV): 70% | inhibition at 50 g/ha ([5]; Setaria viridis, 648 h, Frigate: No addition, Compound A 50 g/ha, read-out: Growth Inhibition (%) SV): 80% | inhibition at 30 g/ha ([6]; Frigate 0.1 % by volume): 85% | inhibition at 40 g/ha ([6]; Frigate 0.1 % by volume): 95% | inhibition at 20 g/ha [6, 8]: 85% | inhibition at 30 g/ha ([6]; Frigate 0.2 % by volume): 85% | inhibition at 40 g/ha ([6]; Frigate 0.2 % by volume): 90% | inhibition at 30 g/ha ([6]; Frigate: No addition): 75% | inhibition at 40 g/ha ([6]; Frigate: No addition): 80% | inhibition at 50 g/ha [6, 9]: 85% | inhibition at 30 g/ha ([7]; Frigate 0.1 % by volume): 95% | inhibition at 40 g/ha ([7]; Frigate 0.1 % by volume): 90% | inhibition at 20 g/ha [7, 8]: 85% | inhibition at 30 g/ha ([7]; Frigate 0.2 % by volume): 90% | inhibition at 40 g/ha ([7]; Frigate 0.2 % by volume): 95% | inhibition at 30 g/ha ([7]; Frigate: No addition): 90% | inhibition at 40 g/ha ([7]; Frigate: No addition): 95% | inhibition at 50 g/ha [7, 9]: 95% | inhibition at 20 g/ha (total evaluation; [8]): 95% | inhibition at 30 g/ha (total evaluation; Frigate 0.2 % by volume, Compound A 30 g/ha): 95% | inhibition at 40 g/ha (total evaluation; Frigate 0.2 % by volume): 95% | inhibition at 60 g/ha (total evaluation; Frigate 0.2 % by volume): 99% | inhibition at 40 g/ha (total evaluation; Frigate: No addition): 70% | inhibition at 60 g/ha (total evaluation; Frigate: No addition): 70%

Source: patent EP0598515A1, “Method for herbicidal activity-enhancing, activity-enhanced herbicidal composition and activity-enhancing composition” (ISHIHARA SANGYO KAISHA LTD., priority 1992, dated 1994)
